Experimental data: paper PMC10657444, “Design and evaluation of tadpole-like conformational antimicrobial peptides” (Communications Biology, 2023)
Converted amounts (≈) assume the structure as drawn. Residues, ends and D or L forms follow the SMILES beside them.

What was measured:
[1] = tested on: A. baumannii 1318; type: cell-based, Acinetobacter baumannii
Source text: (§1) Bacteria were cultivated in Luria-Bertani (LB) broth.

[2] = tested on: A. baumannii 1337; type: cell-based, Acinetobacter baumannii
Source text: as §1

[3] = tested on: Acinetobacter baumannii; type: cell-based
Source text: as §1

[4] = tested on: K. pneumoniae ATCC 700603; type: cell-based, Klebsiella pneumoniae
Source text: as §1

[5] = tested on: K. pneumoniae 3026; type: cell-based, Klebsiella pneumoniae
Source text: as §1

[6] = tested on: HEK293T cells; assay: MTT cytotoxicity assay; type: cell-based, human
Protocol: (§2) To determine the cytotoxicity of the peptides, we used the MTT (3-(4,5)-dimethylthiahiazo (-z-y1)-3,5-di-phenytetrazoliumromide) dye reduction assay against HEK293T cells. In brief, the 100 μL of cells in 96-well plate were incubated for 24 h at 37 °C, 5% CO2, and then peptide solutions (concentrations ranging from 100 to 0.39 μM) were added and further incubated for 72 h. MTT solution (5 mg/mL) was added and further incubated for 4 h. After incubation, the precipitated MTT formazan crystal was dissolved by addition of dimethyl sulfoxide (DMSO). […]

[7] = MTT cytotoxicity assay; type: cell-based, human; conditions: human
Protocol: as §2

[8] = tested on: sheep red blood cells; assay: Hemolysis assay; conditions: red cells of sheep, 1 h
Protocol: To evaluate the hemolysis effects of peptides, red blood hemolysis was performed as described with minimum modifications. Sterile defibrated sheep blood was purchased from Guangzhou Hongquan Biotechnology Co., LTD. Blood cells were adjusted to 2 × 10^9 cells/mL in phosphate-buffered saline (PBS, pH 7.4). In total, 98 μL sheep red blood cell suspension was incubated with 2 μL of peptides at different concentrations ranging from 3.13 to 100 µM. After incubation for 1 h at 37 °C, the cells were centrifuged and the absorbance of the supernatant was measured at 450 nm. The value for “zero hemolysis” was determined using sterile PBS, while 100% hemolysis was established using 1.5% (v/v) Triton X-100. Hemolysis of testing sample was calculated as the percentage of Triton X-100-induced hemolysis.

[9] = tested on: E. coli ATCC 25922; type: cell-based, Escherichia coli
Source text: as §1

[10] = tested on: E. coli S; type: cell-based, Escherichia coli
Source text: as §1

[11] = tested on: MRSA 3393; type: cell-based, Staphylococcus aureus; conditions: 3393
Source text: as §1

[12] = tested on: MRSA; type: cell-based, Staphylococcus aureus
Source text: as §1

[13] = tested on: MRSA ATCC 43300; type: cell-based, Staphylococcus aureus; conditions: ATCC 43300
Source text: as §1

[14] = tested on: MRSA USA 300; type: cell-based, Staphylococcus aureus
Source text: as §1

[15] = HEK293T cells, OD450, cytotoxicity (Fig 2a), replicates

MIC Gram- A. b 1318 [1]: 25 µM (≈ 32.3 µg/mL) | MIC Gram- A. b 1337 [2]: 25 µM (≈ 32.3 µg/mL) | MIC against Gram-negative Acinetobacter baumannii [3]: 25 µM (≈ 32.3 µg/mL) | MIC Gram- K. p ATCC 700603 [4]: > 100 µM | MIC Gram- K. p 3026 [5]: > 100 µM | MIC Gram- E. coli ATCC 25922 [9]: 25 µM (≈ 32.3 µg/mL) | MIC Gram- E. coli S [10]: 12.5 µM (≈ 16.1 µg/mL) | MIC Gram+ MRSA 3393 [11]: 6.25 µM (≈ 8.07 µg/mL) | MICs against MRSA [12]: 3.13 to 6.25 µM | MIC Gram+ MRSA ATCC 43300 [13]: 3.13 µM (≈ 4.04 µg/mL) | MIC Gram+ MRSA USA 300 [14]: 6.25 µM (≈ 8.07 µg/mL)
SMILES: CC[C@H](C)[C@H](NC(=O)[C@H](CCCNC(=N)N)NC(=O)[C@H](CCCNC(=N)N)NC(=O)[C@H](CC(C)C)NC(=O)[C@@H](N)Cc1ccccc1)C(=O)N[C@@H](Cc1ccccc1)C(=O)N[C@@H](Cc1ccccc1)C(=O)N[C@@H](Cc1ccccc1)C(=O)N[C@@H](Cc1ccccc1)C(N)=O [HT1] (H-FLRRIFFFF-NH2)
toxicity / cytotoxicity against HEK293T cells (in words) [6]: high toxicity | IC50 at 72 h [7]: 2700 nM | viability at 72 h, 0.39 µM [7, 15]: 93.6% | viability at 72 h, 0.78 µM [7, 15]: 87.3% | viability at 72 h, 1.57 µM [7, 15]: 78% | viability at 72 h, 3.13 µM [7, 15]: 30.5% | viability at 72 h, 12.5 µM [7, 15]: 0.557% | viability at 72 h, 25 µM [7, 15]: 1.3% | HC10 (concentration inducing 10% hemolysis) [8]: 25.0 µM
